Source: ChEMBL document CHEMBL2331105, “Selective Cyp11B1 Inhibitors for the Treatment of Cortisol Dependent Diseases” (ACS Med Chem Lett, 2013)

Legend:
[1] = target: T1, Cytochrome P450 11B2, mitochondrial (Homo sapiens, UniProt P19099); assay: Inhibition of human CYP11B2 expressed in hamster V79MZ cells using [1,2-3H]11-deoxycorticosterone as substrate preincubated for 60 mins prior to substrate addition measured after 50 mins by HPLC analysis; assay type: cell-based
T1 sequence (P19099 whole entry): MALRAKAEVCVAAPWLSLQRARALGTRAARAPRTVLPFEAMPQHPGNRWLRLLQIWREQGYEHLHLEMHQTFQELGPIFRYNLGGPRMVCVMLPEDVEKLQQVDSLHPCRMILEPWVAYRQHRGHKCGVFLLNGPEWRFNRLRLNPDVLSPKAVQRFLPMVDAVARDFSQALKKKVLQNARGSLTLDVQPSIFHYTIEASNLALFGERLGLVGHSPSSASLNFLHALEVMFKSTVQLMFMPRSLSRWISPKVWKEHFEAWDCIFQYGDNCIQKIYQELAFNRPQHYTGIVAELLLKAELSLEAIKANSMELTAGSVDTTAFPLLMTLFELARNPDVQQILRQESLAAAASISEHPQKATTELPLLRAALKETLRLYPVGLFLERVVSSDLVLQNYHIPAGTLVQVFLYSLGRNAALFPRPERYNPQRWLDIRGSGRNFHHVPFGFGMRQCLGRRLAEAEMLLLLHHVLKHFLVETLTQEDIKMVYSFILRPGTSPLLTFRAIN

[2] = target: T2, Cytochrome P450 11B1, mitochondrial (Homo sapiens, UniProt P15538); assay: Inhibition of human CYP11B1 expressed in hamster V79MZ cells using [1,2-3H]11-deoxycorticosterone as substrate preincubated for 60 mins prior to substrate addition measured after 25 mins by HPLC analysis; assay type: cell-based
T2 sequence (P15538 whole entry): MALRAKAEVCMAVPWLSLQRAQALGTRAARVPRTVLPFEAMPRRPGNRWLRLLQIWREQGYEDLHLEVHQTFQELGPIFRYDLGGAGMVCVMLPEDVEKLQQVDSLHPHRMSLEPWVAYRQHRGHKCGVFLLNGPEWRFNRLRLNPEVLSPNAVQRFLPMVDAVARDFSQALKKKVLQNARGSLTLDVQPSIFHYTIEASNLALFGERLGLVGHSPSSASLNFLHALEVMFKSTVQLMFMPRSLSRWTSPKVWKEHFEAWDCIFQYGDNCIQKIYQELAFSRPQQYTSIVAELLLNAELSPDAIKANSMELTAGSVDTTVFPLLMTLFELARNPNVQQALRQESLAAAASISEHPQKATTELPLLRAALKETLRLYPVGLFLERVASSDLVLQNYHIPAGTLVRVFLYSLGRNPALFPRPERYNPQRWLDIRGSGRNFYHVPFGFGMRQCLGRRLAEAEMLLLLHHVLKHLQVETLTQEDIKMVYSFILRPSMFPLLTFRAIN

What does the source list for `Fc1ccc(Cn2ccnc2)cn1`?
IC50 [1]: 1740 nM; IC50 [2]: 72 nM
